Series [1] deals with T1, CDK8/Cyclin C (Homo sapiens, UniProt P49336). Briefly: Inhibition of kinase tracer-236 binding to GST-tagged CDK8/CyclinC (unknown origin) after 60 mins by TR-FRET assay. The format is protein-complex assay.
In series [2] the target is Cyclin-C/Cyclin-dependent kinase 19 (Homo sapiens, UniProt Q9BWU1). Nature of the series: Inhibition of kinase tracer-236 binding to GST-tagged CDK19/CyclinC (unknown origin) after 60 mins by TR-FRET assay. The series is classed as protein-complex assay. A general note: TR-FRET usually uses a lanthanide donor and a delayed reading to cut background.
The target of series [3] is Cyclin-dependent kinase 8 (Homo sapiens, UniProt P49336). Briefly: Inhibition of CDK8 in human SW480 cells assessed as decrease in STAT1 phosphorylation at Ser727 after 2 hrs by Western blot method.
A short description of series [4]: Intrinsic clearance in human liver microsomes at 1 umol/l after 15 to 30 mins in presence of NADPH by LC-MS/MS analysis. To be noted: read-out: CLH. The format is ADME, microsome. For orientation: Liver microsomes are a subcellular fraction often used to study metabolism.
Series [5] in a line: Aqueous solubility of the compound in DMSO at pH 6.8 by HPLC method. The series is classed as physicochemical.
The target in series [6] is T1, CDK8/Cyclin C. Nature of the series: Inhibition of full length recombinant human His-tagged CDK8/Cyclin C expressed in baculovirus expression system using Ulight-GS peptide as substrate measured after 30 mins by TR-FRET based LANCE assay.

Values after ≈ are worked out from the molar mass of the structure shown.

One may read the IC50 as the concentration at which inhibition is half-maximal. A word on the EC50: it is the midpoint of the concentration-response curve. Usually solubility stands for how much of the substance goes into solution per volume. The low end stands for a poorly soluble substance, the high end for a readily soluble substance.

Sequence of Cyclin-C/Cyclin-dependent kinase 19 (Q9BWU1 whole entry): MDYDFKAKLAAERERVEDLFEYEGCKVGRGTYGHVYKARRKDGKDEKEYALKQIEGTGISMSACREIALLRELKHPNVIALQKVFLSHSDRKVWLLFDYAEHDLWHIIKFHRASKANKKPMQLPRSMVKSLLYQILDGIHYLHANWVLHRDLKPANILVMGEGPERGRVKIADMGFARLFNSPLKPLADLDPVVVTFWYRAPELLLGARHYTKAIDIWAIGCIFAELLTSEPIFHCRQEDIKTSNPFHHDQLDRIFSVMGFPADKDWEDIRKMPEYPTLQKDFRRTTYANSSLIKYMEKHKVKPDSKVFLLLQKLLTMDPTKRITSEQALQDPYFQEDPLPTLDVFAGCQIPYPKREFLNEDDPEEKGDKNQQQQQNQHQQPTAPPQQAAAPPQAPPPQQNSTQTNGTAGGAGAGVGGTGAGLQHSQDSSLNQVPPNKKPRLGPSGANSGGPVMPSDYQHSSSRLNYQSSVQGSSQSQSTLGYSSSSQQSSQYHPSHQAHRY
Sequence of Cyclin-C/Cyclin-dependent kinase 19 (P24863 whole entry, further chain): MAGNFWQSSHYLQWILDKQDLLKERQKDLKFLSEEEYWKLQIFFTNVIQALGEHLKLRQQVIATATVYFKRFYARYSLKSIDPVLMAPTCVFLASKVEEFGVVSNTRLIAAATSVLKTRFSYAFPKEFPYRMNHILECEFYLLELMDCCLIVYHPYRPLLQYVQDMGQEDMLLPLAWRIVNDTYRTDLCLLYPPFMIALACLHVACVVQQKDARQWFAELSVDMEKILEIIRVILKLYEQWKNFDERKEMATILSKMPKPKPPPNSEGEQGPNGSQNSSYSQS
T1 sequence (P49336 whole entry): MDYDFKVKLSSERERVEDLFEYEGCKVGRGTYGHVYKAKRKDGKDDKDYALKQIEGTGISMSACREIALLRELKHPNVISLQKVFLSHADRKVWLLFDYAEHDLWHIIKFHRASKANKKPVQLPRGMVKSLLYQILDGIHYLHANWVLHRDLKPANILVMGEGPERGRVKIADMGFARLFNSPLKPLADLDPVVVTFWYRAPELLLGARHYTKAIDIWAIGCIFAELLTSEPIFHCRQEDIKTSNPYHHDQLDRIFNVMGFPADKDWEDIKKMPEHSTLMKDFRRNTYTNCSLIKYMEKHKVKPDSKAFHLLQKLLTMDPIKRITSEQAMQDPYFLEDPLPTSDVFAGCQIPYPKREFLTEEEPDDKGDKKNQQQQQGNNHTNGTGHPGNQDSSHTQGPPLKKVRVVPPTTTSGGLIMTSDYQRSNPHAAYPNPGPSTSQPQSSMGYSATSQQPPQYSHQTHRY
T1 sequence (P24863 whole entry, further chain): as the sequence (P24863 whole entry, further chain) above
Sequence of Cyclin-dependent kinase 8 (P49336 whole entry): as the sequence (P49336 whole entry) above

On to `CS(=O)(=O)c1sc(C(N)=O)c2c1-c1sncc1CC2`, for which the results for the IC50 (on CDK8/Cyclin C [1]; in series [2]) were 63 nM and 110 nM, respectively. Besides, the EC50 in series [3] came to 220 nM.

Turning to `CC(=O)Nc1ccc(Oc2sc(C(N)=O)c3c2-c2sncc2CC3)cn1`, the microsomal CLint at 1 µM in series [4] came out at 61 µL/min/mg. Further, in series [5], the solubility worked out at 0.72 µg/mL (≈ 1.86 µM). The IC50 (on CDK8/Cyclin C [1]; in series [2]) was 0.57 nM each time. In series [3], the EC50 was determined as 0.4 nM.

Take `Cc1ccncc1Oc1sc(C(N)=O)c2c1-c1sncc1CC2`: in series [4], the microsomal CLint at 1 µM is 65 µL/min/mg. For the same compound, the IC50 stood at 4.7 nM on CDK8/Cyclin C [1] and 6.6 nM in series [2]. Besides, in series [3], the EC50 came to 16 nM.

With `OC[C@H](Nc1cncc(-c2ccc(O)c(Cl)c2)n1)c1ccccc1`, on CDK8/Cyclin C [6], the IC50 was determined as 0.2 nM.

Take `NC(=O)c1[nH]cc(-c2ccncc2)c1Cl`: the IC50 on CDK8/Cyclin C [6] is 7 nM.

Consider `Cc1cncc(Oc2sc(C(N)=O)c3c2-c2sncc2CC3)c1`, for which the microsomal CLint at 1 µM in series [4] was 188 µL/min/mg. Also, the figures for the IC50 (on CDK8/Cyclin C [1]; in series [2]) were 5.1 nM and 9.2 nM, respectively. For the same compound, in series [3], the EC50 turned out to be 28 nM.

`NC(=O)c1sc(Oc2ccccc2)c2c1CCc1cnsc1-2`: the microsomal CLint at 1 µM in series [4] is 193 µL/min/mg. The IC50 was 0.34 nM at CDK8/Cyclin C [1] and 0.55 nM in series [2]. The EC50 in series [3] worked out at 0.77 nM.

`Cc1c(Oc2sc(C(N)=O)c3c2-c2sncc2CC3)ccc[n+]1[O-]`: the IC50 at CDK8/Cyclin C [1] was found to be 4.4 nM; in series [2], 9.3 nM. Further, the EC50 in series [3] came out at 8.3 nM.

As for `CSc1sc(C(N)=O)c2c1-c1[nH]ncc1CC2`, the figures for the IC50 (on CDK8/Cyclin C [1]; in series [2]) were 1700 nM and 3100 nM, respectively. Moreover, the EC50 in series [3] stood at 1300 nM.

With `CSc1sc(C(=O)Nc2ccccn2)c2c1-c1sncc1CC2`, the results for the IC50 (on CDK8/Cyclin C [1]; in series [2]) were 180 nM and 400 nM, respectively. In series [3], the EC50 amounted to 2800 nM.

Consider `C[S+]([O-])c1sc(C(N)=O)c2c1-c1sncc1CC2` (stereo not given), for which the IC50 at CDK8/Cyclin C [1] is 88 nM; in series [2] it was 150 nM. In addition, the EC50 in series [3] stood at 70 nM.

Regarding `CNC(=O)c1ccc(Oc2sc(C(N)=O)c3c2-c2sncc2CC3)cn1`, the microsomal CLint at 1 µM in series [4] was 23 µL/min/mg. The same compound yielded a solubility in series [5] of 11 µg/mL (≈ 28.5 µM). In addition, the concentration for half-maximal inhibition (IC50) at CDK8/Cyclin C [1] came out at 1.9 nM; in series [2] it was 1 nM. For the same compound, in series [3], the EC50 worked out at 2.6 nM.

For the compound `CNc1ccc(Oc2sc(C(N)=O)c3c2-c2sncc2CC3)cn1`, the microsomal CLint at 1 µM in series [4] turned out to be 127 µL/min/mg. In series [5], this compound had a solubility of 4 µg/mL (≈ 11.2 µM). Further, the IC50 on CDK8/Cyclin C [1] came out at 0.59 nM; in series [2], 0.36 nM. The EC50 in series [3] came to 0.58 nM.

Regarding `CSc1sc(C#N)c2c1-c1sncc1CC2`, the IC50 at CDK8/Cyclin C [1] is 23 nM; in series [2], 46 nM. For the same compound, in series [3], the EC50 is 490 nM.

For the compound `NC(=O)c1sc(Oc2ccccn2)c2c1CCc1cnsc1-2`, the microsomal CLint at 1 µM in series [4] is 101 µL/min/mg. Besides, the IC50 at CDK8/Cyclin C [1] came to 11 nM; in series [2], 25 nM. Further, the EC50 in series [3] is 66 nM.

With `CSc1sc(C(=O)Nc2ccccc2)c2c1-c1sncc1CC2`, the IC50 came out at 540 nM on CDK8/Cyclin C [1] and 700 nM in series [2]. Further, the EC50 in series [3] was > 10000 nM.

For `Cc1ccc(Oc2sc(C(N)=O)c3c2-c2sncc2CC3)cn1`, the microsomal CLint at 1 µM in series [4] was determined as 75 µL/min/mg. The compound further registered a solubility in series [5] of 23 µg/mL (≈ 67 µM). The figures for the IC50 (on CDK8/Cyclin C [1]; in series [2]) were 0.99 nM and 1.3 nM, respectively. In addition, the EC50 in series [3] was determined as 3 nM.

In the case of `COc1sc(C(N)=O)c2c1-c1sncc1CC2`, the half-maximal inhibitory concentration (IC50) at CDK8/Cyclin C [1] came out at 2.3 nM; in series [2], 2.8 nM. Moreover, the EC50 in series [3] is 9.1 nM.

As for `OC[C@H](Nc1cncc(-c2ccc3[nH]ncc3c2)c1)c1ccccc1`, the IC50 at CDK8/Cyclin C [6] is 0.4 nM.

As for `NC(=O)c1sc(Oc2cccnc2)c2c1CCc1cnsc1-2`, the microsomal CLint at 1 µM in series [4] came out at 55 µL/min/mg. Further, the values for the IC50 (on CDK8/Cyclin C [1]; in series [2]) were 1.5 nM and 2.7 nM, respectively. Further, in series [3], the EC50 was 3 nM.

Consider `CCOCCNC(=O)c1ccc(Oc2sc(C(N)=O)c3c2-c2sncc2CC3)cn1`, for which the microsomal CLint at 1 µM in series [4] is 73 µL/min/mg. In series [5], this compound displayed a solubility of 15 µg/mL (≈ 33.7 µM). Besides, the figures for the half-inhibitory concentration (IC50) (at CDK8/Cyclin C [1]; in series [2]) were 1.1 nM and 1.9 nM, respectively. For the same compound, in series [3], the EC50 is 1.5 nM.

On to `CSc1sc(C(=O)O)c2c1-c1sncc1CC2`, for which the IC50 amounted to 9.5 nM at CDK8/Cyclin C [1] and 12 nM in series [2]. The EC50 in series [3] was > 10000 nM.

As to `CNC(=O)c1sc(SC)c2c1CCc1cnsc1-2`, the IC50 is 9.3 nM on CDK8/Cyclin C [1] and 22 nM in series [2]. The EC50 in series [3] is 140 nM.

Take `COCCNC(=O)c1ccc(Oc2sc(C(N)=O)c3c2-c2sncc2CC3)c(C)n1`: in series [4], the microsomal CLint at 1 µM is 71 µL/min/mg. For the same compound, the solubility in series [5] was determined as 6.7 µg/mL (≈ 15.1 µM). For the same compound, the IC50 was 1.4 nM at CDK8/Cyclin C [1] and 1.3 nM in series [2]. Also, the 50% effective concentration (EC50) in series [3] was determined as 0.35 nM.

For the compound `CSc1sc(C(N)=O)c2c1-c1oncc1CC2`, the IC50 on CDK8/Cyclin C [1] amounted to 45 nM; in series [2], 71 nM. Moreover, the EC50 in series [3] is 200 nM.

Take `CSc1sc(C(N)=O)c2c1-c1snnc1CC2`: the half-maximal inhibitory concentration (IC50) was 60 nM on CDK8/Cyclin C [1] and 130 nM in series [2]. Also, the EC50 in series [3] amounted to 550 nM.

Regarding `CN(C)C(=O)c1ccc(Oc2sc(C(N)=O)c3c2-c2sncc2CC3)cn1`, the microsomal CLint at 1 µM in series [4] came out at 36 µL/min/mg. The compound also returned a solubility in series [5] of 65 µg/mL (≈ 162 µM). Further, the half-inhibitory concentration (IC50) was 23 nM at CDK8/Cyclin C [1] and 21 nM in series [2]. Also, the EC50 in series [3] amounted to 21 nM.

Consider `CSc1sc(C(N)=O)c2c1-c1nn(C)cc1CC2`, for which, at CDK8/Cyclin C [1], the IC50 is > 10000 nM. Moreover, in series [3], the EC50 is > 10000 nM.

With `NC(=O)c1ccc(Oc2sc(C(N)=O)c3c2-c2sncc2CC3)cn1`, in series [4], the microsomal CLint at 1 µM was 19 µL/min/mg. The concentration in solution in series [5] (solubility) was 4.1 µg/mL (≈ 11 µM). Also, the IC50 on CDK8/Cyclin C [1] is 0.93 nM; in series [2], 0.97 nM. In addition, the concentration for a half-maximal effect (EC50) in series [3] came out at 1.4 nM.

With `Cc1ncccc1Oc1sc(C(N)=O)c2c1-c1sncc1CC2`, the microsomal CLint at 1 µM in series [4] came out at 86 µL/min/mg. Besides, the IC50 on CDK8/Cyclin C [1] amounted to 0.47 nM; in series [2], 0.77 nM. Also, the EC50 in series [3] was 2 nM.

As to `CSc1sc(C(=O)Nc2ccsn2)c2c1-c1sncc1CC2`, the IC50 at CDK8/Cyclin C [1] amounted to 66 nM; in series [2] it was 93 nM. Also, the concentration for a half-maximal effect (EC50) in series [3] amounted to 620 nM.

In the case of `CC(C)(O)CNC(=O)c1ccc(Oc2sc(C(N)=O)c3c2-c2sncc2CC3)cn1`, the microsomal CLint at 1 µM in series [4] was determined as 21 µL/min/mg. The compound also yielded a solubility in series [5] of 56 µg/mL (≈ 126 µM). Also, the IC50 (at CDK8/Cyclin C [1]; in series [2]) was 2.4 nM throughout. The EC50 in series [3] was determined as 7.4 nM.

With `CSc1sc(C(=O)Nc2ccn(C)n2)c2c1-c1sncc1CC2`, the IC50 on CDK8/Cyclin C [1] is 22 nM; in series [2], 65 nM. Further, the EC50 in series [3] came to 1400 nM.

Take `CSc1sc(C(=O)Nc2ccon2)c2c1-c1sncc1CC2`: the IC50 at CDK8/Cyclin C [1] turned out to be 12 nM; in series [2], 15 nM. In addition, the EC50 in series [3] was determined as 890 nM.

With `CSc1sc(C(N)=O)c2c1-c1c(cnn1C)CC2`, the IC50 at CDK8/Cyclin C [1] came to 18 nM; in series [2], 19 nM. The EC50 in series [3] turned out to be 25 nM.

As for `NC(=O)c1sc(Oc2ccc(N)nc2)c2c1CCc1cnsc1-2`, the microsomal CLint at 1 µM in series [4] amounted to 30 µL/min/mg. Also, the solubility in series [5] was determined as 4.5 µg/mL (≈ 13.1 µM). Also, the IC50 at CDK8/Cyclin C [1] turned out to be 0.6 nM; in series [2], 1.1 nM. In series [3], the EC50 came to 2.3 nM.

In the case of `CSc1sc(C(=O)N(C)C)c2c1-c1sncc1CC2`, the IC50 on CDK8/Cyclin C [1] was 68 nM; in series [2], 120 nM. For the same compound, in series [3], the EC50 worked out at 1700 nM.

Values taken from ChEMBL document CHEMBL4028808, “Design and synthesis of selective CDK8/19 dual inhibitors: Discovery of 4,5-dihydrothieno[3',4':3,4]benzo[1,2-d]isothiazole derivatives” (Bioorg Med Chem, 2017).
